Data: US20020072535A1 (priority 1997, published 2002)

Experiments:
Assay type in all cases: in vivo
[1] = tested on: Phytophthora infestans; test: whole plant or invertebrate; details: in Solanum lycopersicum, 72 h, read-out: Efficiacy in %
[2] = tested on: Fusarium nivale; test: Fusarium nivale test (triticale)/seed treatment; details: triticale seed dressing, about 3 weeks after sowing
Protocol: Fusarium nivale test (triticale)/seed treatment
(§1) The active compounds are applied as dry seed dressings. These are prepared by extending the respective active compound or the active compound combination with ground minerals to give a finely pulverulent mixture which ensures uniform distribution on the seed surface.
(§2) To dress the seed, the infected seed together with the seed dressing is shaken for 3 minutes in a sealed glass flask.
2×100 corns of triticale are sown at a depth of 1 cm in standard soil and cultivated in a greenhouse at a temperature of about 10° C. and a relative atmospheric humidity of about 95% in seed trays which receive a light regimen of 15 hours per day.
About 3 weeks after sowing, the plants are evaluated for symptoms. 0% means an efficacy which corresponds to that of the control, while an efficacy of 100% means that no infection is observed.

[3] = tested on: Pythium sp.; test: Pythium sp. test (pea)/seed treatment; details: pea seed dressing, evaluation after 14 days
Protocol: Pythium sp. test (pea)/seed treatment
as §1, §2
2×50 corns of seed are sown at a depth of 2 cm in compost soil naturally infected with phythium sp. and cultivated in a greenhouse at a temperature of about 20° C. in seed trays which receive a light regimen of 15 hours per day.
Evaluation is carried out after 14 days. 0% means an efficacy which corresponds to that of the control, while an efficacy of 100% means that no infection is observed.

SMILES	pest or weed control at 0.2 g/ha [1] [%]	further results
OC(Cc1ccccc1Cl)(Cn1nc[nH]c1=S)C1(Cl)CC1 (centres unmarked)	0	–
Cc1noc(C)c1S(=O)(=O)n1c(Br)nc2cc3c(cc21)OC(F)(F)O3 [(Ia), 1-(3,5-dimethyl-isoxazole-4-sulphonyl)-2-bromo6,6-difluoro[1,3]-dioxolo-[4,5f]-benzimidazole]	14	pest or weed control at 1 g/ha [1]: 65%; Efficacy in % ([2]; 100 mg/kg of seed): 26%; Efficacy in % ([3]; 500 mg/kg of seed): 1%
CCNC(=O)NC(=O)C(C#N)=NOC	0	–
CC(C)(C)C(O)(CCc1ccc(Cl)cc1)Cn1cncn1 (centres unmarked)	0	–
CO/C=C(/C(=O)OC)c1ccccc1COc1ccccc1C	0	–
CC(C)(C)C(O)C(Oc1ccc(Cl)cc1)n1cncn1 (centres unmarked)	0	–
Cc1cc(C)nc(Nc2ccccc2)n1	–	pest or weed control at 1 g/ha [1]: 0%
CO/N=C(\C1=NOCCO1)c1ccccc1Oc1ncnc(Oc2ccccc2Cl)c1F	–	pest or weed control at 1 g/ha [1]: 27%
CC1(C(=O)Nc2ccc(O)c(Cl)c2Cl)CCCCC1	–	pest or weed control at 5 g/ha [1]: 0%
O=[N+]([O-])/N=C1\NCCN1Cc1ccc(Cl)nc1 [(XXII), 1-[(6-chloro-3-pyridinyl)-methyl]-N-nitro-2-imidazolidineimine]	–	Efficacy in % ([2]; 100 mg/kg of seed): 0%
COCC(=O)N(c1c(C)cccc1C)C(C)C(=O)OC (centres unmarked)	0	–
O=C1c2ccccc2C(=O)N1SC(Cl)(Cl)Cl	–	pest or weed control at 2 g/ha [1]: 12%
CC(C)(C)C(O)C(Oc1ccc(-c2ccccc2)cc1)n1cncn1 (centres unmarked)	24	–
CCC(C)(NC(=O)c1cc(Cl)c(C)c(Cl)c1)C(=O)CCl (centres unmarked)	0	–
COc1ccc(C(=CC(=O)N2CCOCC2)c2ccc(Cl)cc2)cc1OC	0	–
Cc1ccc(C(C)NC(=O)C(NC(=O)OC(C)C)C(C)C)cc1 (centres unmarked)	0	pest or weed control at 1 g/ha [1]: 0%
CC(C)(C)C(=O)C(Oc1ccc(Cl)cc1)n1cncn1 (centres unmarked)	0	–
Cc1noc(C)c1S(=O)(=O)n1c(Cl)nc2cc3c(cc21)OC(F)(F)O3 [(Ib), 1-(3,5-dimethyl-isoxazole-4-sulphonyl)-2-chloro-6,6-difluoro-[1,3]-dioxolo-[4,5f]-benzimidazole]	37	pest or weed control at 1 g/ha [1]: 76%; Efficacy in % ([2]; 100 mg/kg of seed): 0%; Efficacy in % ([2]; 500 mg/kg of seed): 0%; Efficacy in % ([3]; 1000 mg/kg of seed): 4%
O=[N+]([O-])/N=C1\NCCN1Cc1ccc(Cl)nc1 [drawing 67]	6	–
Cc1cc(C2CC2)nc(Nc2ccccc2)n1	–	pest or weed control at 1 g/ha [1]: 0%
CO/C=C(/C(=O)OC)c1ccccc1Oc1cc(Oc2ccccc2C#N)ncn1	51	–
